In general, CC50 refers to the concentration giving 50% cytotoxicity.

Each structure is given as a SMILES string.

The text below walks through data of patent publication US7910750B2, “Artemisinin (qinghaosu) derivatives, their preparation methods and their use, and pharmaceutical compositions containing the same” (Shanghai Institute of Materia Medica, Chinese Academy of …, priority 2005, dated 2011).

For one series, the system named is B lymphocyte. Description: Lymphocyte proliferation test, B lymphocyte proliferation response induced by LPS ([3H]-thymidine). In kind it is cell-based, mouse. The settings on record: mouse spleen cells, LPS, 48 hours; read-out: Inhibiting activity of B lymphocyte proliferation response induced by LPS IC50. The procedure:
3. After incubated in 5% CO2 incubator at 37° C. for 48 hours, 0.5 μCi [^3H]-thymidine (25 μL/well) was added into each well 7-8 hours before the termination of the incubation. 4.

The test system of series [1] is BALB/c mouse spleen cells. Put plainly: Lymphocytotoxicity test (MTT). In kind it is cell-based. The settings on record: mouse spleen cells, 48 hours, read-out: Lymphocytotoxicity CC50. On the procedure:
A. Lymphocytotoxicity Test
1. BALB/c mice were killed by cervical dislocation, and their spleens were removed aseptically. A single spleen cell suspension was prepared and cell debris and clumps were removed.
2. 80 μL cell suspension, 40 μL testing sample, 40 μL medium containing 10% FBS were added into 96 well plate; for the control group, 80 μL medium was added the total volume was 160 μL, and blank control group was set.
3. After incubated in 5% CO2 incubator at 37° C. for 48 hours, 16 μL MTT (5 mg/mL) reagent was added into each well 6-7 hours before the termination of the incubation.

For another series, the system named is T lymphocyte. Put plainly: Lymphocyte proliferation test, T lymphocyte proliferation response induced by ConA ([3H]-thymidine). In kind it is cell-based, mouse. The settings on record: mouse spleen cells, ConA, 48 hours; read-out: Inhibiting activity of T lymphocyte proliferation response induced by ConA IC50. On the procedure: B. Lymphocyte Proliferation Test […] […] 3. After incubated in 5% CO2 incubator at 37° C. for 48 hours, 0.5 μCi [^3H]-thymidine (25 μL/well) was added into each well 7-8 hours before the termination of the incubation. 4.

For `COC(=O)C(C)c1ccc(OC2OC3OC4(C)CCC5C(C)CCC(C2C)C35OO4)cc1` (stereo not drawn) [compound 21, methyl 2-[4-(12β-artemisininoxy)phenyl] propionate], the IC50 in the series with B lymphocyte was found to be 0.16 µM; with T lymphocyte, 0.064 µM. Besides, in series [1], the CC50 was 7.8 µM.

Regarding `COc1ccccc1OC(=O)C(C)Oc1cccc(OC2OC3OC4(C)CCC5C(C)CCC(C2C)C35OO4)c1` (stereo not drawn) [compound 27, o-methoxy-phenyl 2-[3-(12β-Artemisininoxy)phenoxy] propionate], the results for the IC50 in the series with B lymphocyte and with T lymphocyte were 0.57 µM and 4.12 µM, respectively. Besides, the CC50 in series [1] was found to be 2.99 µM.

In the case of `COC(=O)Cc1ccc(OC2OC3OC4(C)CCC5C(C)CCC(C2C)C35OO4)cc1` (stereo not drawn) [compound 1, methyl 4-(12β-artemisininoxy)phenyl acetate], the IC50 with B lymphocyte is 0.179 µM; with T lymphocyte, 0.713 µM. Moreover, the CC50 in series [1] was found to be 8 µM.

In the case of `CC(Oc1ccc(OC2OC3OC4(C)CCC5C(C)CCC(C2C)C35OO4)cc1)C(=O)O` (stereo not drawn) [compound 25, 2-[4-(12β-artemisininoxy)phenoxy] propanoic acid], the IC50 in the series with B lymphocyte turned out to be 0.86 µM; in the series with T lymphocyte it was 7.27 µM. In series [1], the CC50 stood at 24.3 µM.

Regarding `CCOC(=O)C(C)Oc1ccc(OC2OC3OC4(C)CCC5C(C)CCC(C2C)C35OO4)cc1` (stereo not drawn) [compound 24, ethyl 2-[4-(12β-artemisininoxy)phenoxy] propionate], the IC50 was 0.85 µM in the series with B lymphocyte and 0.26 µM with T lymphocyte. Also, the CC50 in series [1] is 17.6 µM.

For the molecule `CC(Oc1cccc(OC2OC3OC4(C)CCC5C(C)CCC(C2C)C35OO4)c1)C(=O)O` (stereo not drawn) [compound 29, 2-[3-(12α-artemisininoxy)phenoxy] propanoic acid], the IC50 came to 0.74 µM in the series with B lymphocyte and 8.6 µM in the series on T lymphocyte. In addition, the CC50 in series [1] turned out to be 35.1 µM.

As for `C[C@H]1[C@H](OC(=O)CCC(=O)O)O[C@@H]2O[C@@]3(C)CC[C@H]4[C@H](C)CC[C@@H]1[C@@]24OO3` [artesunate, reference compound], the CC50 in series [1] amounted to 86 µM. Moreover, in the series on T lymphocyte, the IC50 is 3.82 µM.

As to `CC1CCC2C(C)C(Oc3ccc(CC(=O)O)cc3)OC3OC4(C)CCC1C32OO4` (stereo not drawn) [compound 2, 4-(12β-artemisininoxy)phenyl acetic acid], the IC50 with B lymphocyte was 10.2 µM; in the series on T lymphocyte, 11.8 µM. Further, in series [1], the CC50 was 100 µM.

With `COc1ccccc1OC(=O)C(C)Oc1cccc(OC2OC3OC4(C)CCC5C(C)CCC(C2C)C35OO4)c1` (stereo not drawn) [compound 30, o-methoxy-phenyl 2-[3-(12α-artemisininoxy)phenoxy] propionate], the IC50 worked out at 0.82 µM in the series on B lymphocyte and 5.73 µM in the series with T lymphocyte. The CC50 in series [1] was determined as 8.23 µM.

`COc1ccccc1OC(=O)C(C)c1ccc(OC2OC3OC4(C)CCC5C(C)CCC(C2C)C35OO4)cc1` (stereo not drawn) [compound 23, o-methoxy-phenyl 2-[4-(12β-artemisininoxy)phenyl] propionate]: the IC50 in the series with B lymphocyte was 0.0947 µM; with T lymphocyte it was 0.527 µM. Further, in series [1], the CC50 is 5.33 µM.

Consider `COc1ccccc1OC(=O)C(C)Oc1ccc(OC2OC3OC4(C)CCC5C(C)CCC(C2C)C35OO4)cc1` (stereo not drawn) [compound 26, o-methoxy-phenyl 2-[4-(12β-artemisininoxy)phenoxy] propionate], for which the IC50 with B lymphocyte was 0.27 µM; in the series with T lymphocyte, 2.33 µM. Besides, the CC50 in series [1] was 39.1 µM.

`CC(C(=O)O)c1ccc(OC2OC3OC4(C)CCC5C(C)CCC(C2C)C35OO4)cc1` (stereo not drawn) [compound 22, 2-[4-(12β-artemisininoxy)phenyl] propanoic acid]: the IC50 came to 8.6 µM with B lymphocyte and 3.6 µM in the series on T lymphocyte. Moreover, the CC50 in series [1] was 59.6 µM.

`CC1CCC2C(C)C(Oc3ccc(OCC(=O)OCCN(C)C)cc3)OC3OC4(C)CCC1C32OO4` (stereo not drawn) [compound 4, dimethylaminoethyl-[4-(12β-artemisininoxy)phenoxy] acetate]: the IC50 with B lymphocyte turned out to be 0.0496 µM; in the series with T lymphocyte, 1.96 µM. The CC50 in series [1] is 2.08 µM.

Turning to `CCOC(=O)C(C)Oc1cccc(OC2OC3OC4(C)CCC5C(C)CCC(C2C)C35OO4)c1` (stereo not drawn) [compound 28, ethyl 2-[3-(12α-artemisininoxy)phenoxy] propionate], the IC50 with B lymphocyte worked out at 0.56 µM; in the series on T lymphocyte, 3.59 µM. Further, the CC50 in series [1] stood at 2.99 µM.

For `CCOC(=O)CNC(=O)c1ccc(OC2OC3OC4(C)CCC5C(C)CCC(C2C)C35OO4)cc1` (stereo not drawn) [compound 5, ethyl-[4-(12β-artemisininoxy)benzoyl] aminoacetate], the IC50 is 0.16 µM in the series on B lymphocyte and 2.53 µM with T lymphocyte. The CC50 in series [1] came to 39 µM.
